According to publication PMC6445228, “Synthesis and biological evaluation of anti-Toxoplasma gondii activity of a novel scaffold of thiazolidinone derivatives” (Journal of Enzyme Inhibition and Medicinal Chemistry, 2017):
Read-outs that look alike come from different tables or passages of the source.

What was measured:
[1] = tested on: intracellular T. gondii tachyzoites; experiment: Replication assay (immunofluorescence, tachyzoites per parasitophorous vacuole); format: cell-based, Toxoplasma gondii; conditions: 10 μM, added 2 h after infection, 24 h
Procedure: Figure 2. Replication assay of ferrocene-based thiazolidinone derivatives (10 μM). VHL: vehicle (DMSO); Tz: tachyzoites. Data are compiled from results of three independent experiments.
This assay measures a compound’s ability to inhibit tachyzoite replication over a period of 24 h. The numbers of parasitophorous vacuoles (PV) in experimentally treated infected cells containing 1, 2, 4, or 8 + tachyzoites/vacuole were enumerated, graphed, and compared to those of the VHL-treated infected cells. Data for each size vacuole are shown as the fraction of the total number of vacuoles counted in 10–15 fields. Data shown were compiled from three independent experiments. A decrease in the number of tachyzoites in a vacuole indicates inhibition of replication. Toxoplasma gondii tachyzoites only replicate within the PV inside the host cell with one cycle of replication taking 6–8 h. […] Consequently, a decrease in the number of intravacuolar tachyzoites relative to that of VHL indicates inhibition of replication. Specifically, predominance, i.e. the largest fraction of the total number, of PVs containing 1 or 2 tachyzoites indicates replication inhibition.
Lastly, the replication assay interrogates a compound’s ability to inhibit an established intracellular Toxoplasma infection over the relatively short period of 24 h (3–4 cycles of replication). […] Likewise, allowance of just one cycle of replication results in a majority of PVs containing just two tachyzoites. However, a predominance of PVs containing eight or more tachyzoites indicates absence of inhibitory activity over a 24 h period (see detailed explanation above in Experimental Protocols).

[2] = tested on: human foreskin fibroblast (HFF); experiment: Five-day growth inhibition assay, host cell cytotoxicity; conditions: 120 h
Procedure: (§1) Using published methods[8]^,[19], all of the prepared N-substituted thiazolidinones derivatives were evaluated in vitro for (i) host cell cytotoxicity as well as for the ability to inhibit tachyzoite growth over a period of 5 days (Table 1), for (ii) the ability to inhibit tachyzoite invasion of host cells (Figure 1), and for (iii) the ability to inhibit intracellular tachyzoite replication (Figure 2).
(§2) Compounds were tested for the ability to inhibit in vitro tachyzoite (T. gondii RH-2 F (50839); ATCC, VA) and human foreskin fibroblast (HFF; ATCC) growth for 120 h using a published colorimetric assay[8]^,[19]. Stock solutions of all compounds were 10 mM in DMSO. Serial 0.5 log10 dilutions (320–0.032 μM) of each compound were tested. Data from three separate experiments were analysed and the IC50, IC90, and TD50 calculated using Calcusyn software (Biosoft, Cambridge, UK). The therapeutic index (TI), a measure of specific anti-T. gondii activity, was calculated with the formula shown under Table 1.

[3] = tested on: T. gondii RH-2 F tachyzoites; experiment: Five-day growth inhibition assay (tachyzoite growth, colorimetric); format: cell-based, Toxoplasma gondii; conditions: 120 h; for IC50: read-out: IC50, median inhibitory concentration, a measure of tachyzoite inhibition; for IC90: read-out: IC90, concentration at which 90% of the tachyzoite growth is inhibited
Procedure: as §1, §2
We explored the chemical space and the influence on the biological activity of different groups (substituted aromatic and bicyclic rings) at the lactam NH of the core nucleus. […] In the five-day growth inhibition assay, compounds were added only once, just before addition of tachyzoites, and thus were present for multiple cycles, up to 20, of parasite replication.

[4] = tested on: extracellular T. gondii tachyzoites invading HFF host cells; experiment: Red/green invasion assay (immunofluorescence); format: cell-based, Toxoplasma gondii; conditions: 10 μM, 20 min preincubation, 1 h at 37 °C on HFF, vs vehicle, p ≤ .05
Procedure: Figure 1. Invasion assay of ferrocene-based thiazolidinone derivatives (10 μM). VHL: vehicle (DMSO). *Significant inhibition of tachyzoite invasion (p ≤ .05, two-tailed Students’ t test). **Significant inhibition of tachyzoite attachment (p ≤ .05, two-tailed Students’ t test). Data are compiled from results of three independent experiments.
The ferrocene-based derivatives (10 μM) were examined for activity directly on extracellular tachyzoites using an established immunofluorescence-based red/green invasion assay. This assay measures a compound’s ability to impede the parasite-driven host cell entry of tachyzoites through the host cell plasma membrane. Invaded (intracellular) tachyzoites are labelled green while tachyzoites attached to the surface, but unable to invade, are labelled red. A decrease in the number of invaded tachyzoites relative to vehicle [VHL (DMSO)] is indicative of invasion inhibition. A decrease in the number of invaded plus attached tachyzoites relative to same of VHL is indicative of inhibition of attachment. Data shown are mean values ± SEM of three independent experiments.
We next evaluated the ability of the ferrocene-based derivatives to act directly upon extracellular tachyzoites by using a standard red/green invasion assay. This assay interrogates compounds for inhibition of the first step in host cell infection, i.e. invasion and entry into susceptible cells. In this assay (Figure 1), cell-free purified tachyzoites were incubated with a test compound (10 μM), sulfadiazine (10 μM), or VHL for 20 min at room temperature before being added to HFF host cells. After allowing 1 h at 37 °C for the tachyzoites to attach and invade, the cells were processed by immunofluorescent staining. Extracellular/attached tachyzoites were labelled red while intracellular/penetrated tachyzoites were labelled green.

[5] = HFF cells, top concentration 320 μM
[6] = T. gondii RH-2 F in HFF, three experiments
[7] = Toxoplasma gondii, T. gondii RH-2 F in HFF, three experiments

SMILES	Fraction of PVs containing eight or more tachyzoites [1]	Inhibition of intracellular tachyzoite replication [1]	TD50, median toxicity dose, a measure of cytotoxicity against host cells [2, 5] [µM]	IC50 [3, 6] [µM]	IC90 [3, 6] [µM]	Inhibition of tachyzoite attachment [4]	further results
CC(=NN=C1SCC(=O)N1Cc1ccc(F)cc1)c1ccc[cH-]1.[Fe+2].c1cc[cH-]c1 [Compound 18, 3-(4-Fluorobenzyl)-2-((1-(ferrocen-2-yl)ethylidene)hydrazono)thiazolidin-4-one]	10–18%	modest inhibition	≥320	6	16	–	–
CC(=NN=C1SCC(=O)N1Cc1ccc([N+](=O)[O-])cc1)c1ccc[cH-]1.[Fe+2].c1cc[cH-]c1 [Compound 9, 3-(4-Nitrobenzyl)-2-((1-(ferrocen-2-yl)ethylidene)hydrazono)thiazolidin-4-one]	–	–	217	73	292	significantly inhibited attachment	–
CC(=NN=C1SCC(=O)N1Cc1ccccc1F)c1ccc[cH-]1.[Fe+2].c1cc[cH-]c1 [Compound 12, 3-(2-Fluorobenzyl)-2-((1-(ferrocen-2-yl)ethylidene)hydrazono)thiazolidin-4-one]	10–18%	modest inhibition	≥320	17	64	–	–
CC(=NN=C1SCC(=O)N1Cc1ccccc1[N+](=O)[O-])c1ccc[cH-]1.[Fe+2].c1cc[cH-]c1 [Compound 3, 3-(2-Nitrobenzyl)-2-((1-(ferrocen-2-yl)ethylidene)hydrazono)thiazolidin-4-one]	–	–	≥320	15	78	–	Inhibition of tachyzoite invasion [4]: notable exceptions
Nc1ccc(S(=O)(=O)Nc2ncccn2)cc1 [Sulfadiazine, reference compound]	–	robust replication inhibition	–	–	–	–	TD50, median toxicity dose, a measure of cytotoxicity against host cells ([2]; human): 281 µM; IC50 ([3]; Toxoplasma gondii): 43 µM; IC90 ([3]; Toxoplasma gondii): 219 µM
CC(=NN=C1SCC(=O)N1Cc1cccc(F)c1)c1ccc[cH-]1.[Fe+2].c1cc[cH-]c1 [Compound 15, 3-(3-Fluorobenzyl)-2-((1-(ferrocen-2-yl)ethylidene)hydrazono)thiazolidin-4-one]	–	–	≥320	8	57	significantly inhibited attachment	–
CC(=NN=C1SCC(=O)N1Cc1ccc(Cl)cc1)c1ccc[cH-]1.[Fe+2].c1cc[cH-]c1 [Compound 27, 3-(4-Chlorobenzyl)-2-((1-(ferrocen-2-yl)ethylidene)hydrazono)thiazolidin-4-one]	≤ 1%	fairly strong inhibition	≥320	10	55	–	Inhibition of tachyzoite invasion [4]: notable exceptions
CC(=NN=C1SCC(=O)N1Cc1cccc2ccccc12)c1ccc[cH-]1.[Fe+2].c1cc[cH-]c1 [Compound 30, 3-(Naphthalen-1-ylmethyl)-2-((1-(ferrocen-2-yl)ethylidene)hydrazono)thiazolidin-4-one]	–	–	≥320	5	17	significantly inhibited attachment	–
CC(=NN=C1SCC(=O)N1Cc1ccccc1Cl)c1cccs1 [Compound 20, 3-(2-Chlorobenzyl)-2-((1-(thiophen-2-yl)ethylidene)hydrazono)thiazolidin-4-one]	–	–	–	–	–	–	TD50, median toxicity dose, a measure of cytotoxicity against host cells ([2]; human): 84 µM; melting point: 100 to 102 °C; IC50 [3, 7]: 34 µM; IC90 [3, 7]: 112 µM
